Data published in patent publication US7339065B2, “Design and synthesis of optimized ligands for PPAR” (Bethesda Pharmaceuticals, Inc., priority 2003, dated 2008).

What was measured:
PPARalpha = target: T1, PPARalpha (Homo sapiens, UniProt Q07869); test: cell based transactivation assay, PPARalpha; conditions: activation, transactivation assay in vitro; read-out: EC50 for PPAR isoforms: PPARalpha
T1 construct: uses chimeric receptors where the PPAR LBD is fused to the DBD of the yeast transcription factor GAL4; expressed in transfected cells
T1 sequence (Q07869 239-466 limits assumed): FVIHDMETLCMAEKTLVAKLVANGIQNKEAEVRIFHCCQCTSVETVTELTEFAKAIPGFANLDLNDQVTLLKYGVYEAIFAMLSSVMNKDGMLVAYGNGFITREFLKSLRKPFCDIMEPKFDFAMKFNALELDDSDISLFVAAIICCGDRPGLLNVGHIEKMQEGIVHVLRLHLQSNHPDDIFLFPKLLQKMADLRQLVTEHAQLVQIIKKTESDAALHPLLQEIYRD
Description: (§1) The binding of agonist ligands to the receptor results in changes in the expression level of mRNAs encoded by PPAR target genes. This process, “transactivation”, is determined by cell-based assays which monitor this functional activity. Transactivation assays use cells that have been transfected with a vector expressing the receptor as well as a second vector containing a DNA direct repeat (DR-1) response element and a reporter gene, which encodes an enzyme such as chloramphenicol acetyltransferase, secreted placental alkaline phosphatase, or firefly luciferase. […]
(§2) The binding of agonist ligands to a nuclear receptor results in transactivation, i.e., changes in the expression level of mRNAs encoded by PPAR target genes. […] Activation of the receptor by agonist ligands leads to induction of reporter enzyme expression, which can be conveniently assayed using standard colorimetric or photometric plate readers. […]

[1] = system: human psoriasis skin engrafted onto severe combined immunodeficient (SCID) mice; test: SCID mouse, human skin transplant model of psoriasis; format: in vivo
Excerpt: Background: Human psoriasis skin engrafted onto severe combined immunodeficient (SCID) mice maintains its abnormal histologic characteristics in the absence of any treatment. Treatment of this SCID mouse, human skin transplant model of psoriasis with anti-psoriatic drugs will improve the histologic phenotype of the transplanted psoriatic skin. Thus, the SCID mouse with transplanted human psoriatic skin represents a useful model of psoriasis and can be used to test the therapeutic effects of antipsoriatic drugs (as described in the following references: 1) Nickoloff B J, Kunkel S L, Burdick […]. Severe combined immunodeficiency mouse and human psoriatic skin chimeras. Validation of a new animal model. Am J Pathol. 1995; 146:580-588. […] Archives of Dermatology 136:609-616, 2000). Methods: Keratome pieces of lesional psoriasis skin were transplanted onto immunodeficient mice (such as CB17 strain) as previously described (Nickoloff B J, Kunkel S L, Burdick […]. Am J Pathol. 1995; 146:580-588. Ellis […], Fisher […], Benson S C, Kurtz T W. Archives of Dermatology. 136:609-616, 2000). The transplanted tissue was allowed to heal for four weeks after which six animals were treated once daily for 4-8 weeks by topical application of BP107 to the psoriatic skin in concentrations sufficient to exert an antipsoriatic effect (concentrations ranging from 0.1 micromolar to 10 millimolar in appropriate amounts of vehicle such as DMSO, propylene glycol, or other vehicles familiar to those skilled in the art). At the end of the treatment period, the animals were sacrificed, tissue pieces were fixed in 10% buffered formalin, embedded in paraffin, sectioned, stained with hematoxylin and eosin, and evaluated histologically using techniques familiar to those skilled in the art. Animals topically treated with the corresponding vehicle without any BP107 were used as controls.

PPARdelta = target: T2, PPARdelta (Homo sapiens, UniProt Q03181); test: cell based transactivation assay, PPARdelta; conditions: activation, transactivation assay in vitro; read-out: EC50 for PPAR isoforms: PPARdelta
T2 construct: uses chimeric receptors where the PPAR LBD is fused to the DBD of the yeast transcription factor GAL4; expressed in transfected cells
T2 sequence (Q03181 211-439 limits assumed): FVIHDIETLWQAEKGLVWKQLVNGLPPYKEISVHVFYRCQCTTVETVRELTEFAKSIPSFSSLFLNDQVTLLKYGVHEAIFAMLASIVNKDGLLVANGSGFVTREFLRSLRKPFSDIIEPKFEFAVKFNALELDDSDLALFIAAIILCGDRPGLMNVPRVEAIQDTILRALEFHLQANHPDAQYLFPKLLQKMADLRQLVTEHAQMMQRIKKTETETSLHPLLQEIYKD
Description: as §1, §2

PPARgamma = target: T3, PPARgamma (Homo sapiens, UniProt P37231); test: cell based transactivation assay, PPARgamma; conditions: activation, transactivation assay in vitro; read-out: EC50 for PPAR isoforms: PPARgamma
T3 construct: uses chimeric receptors where the PPAR LBD is fused to the DBD of the yeast transcription factor GAL4; expressed in transfected cells
T3 sequence (P37231 238-503 limits assumed): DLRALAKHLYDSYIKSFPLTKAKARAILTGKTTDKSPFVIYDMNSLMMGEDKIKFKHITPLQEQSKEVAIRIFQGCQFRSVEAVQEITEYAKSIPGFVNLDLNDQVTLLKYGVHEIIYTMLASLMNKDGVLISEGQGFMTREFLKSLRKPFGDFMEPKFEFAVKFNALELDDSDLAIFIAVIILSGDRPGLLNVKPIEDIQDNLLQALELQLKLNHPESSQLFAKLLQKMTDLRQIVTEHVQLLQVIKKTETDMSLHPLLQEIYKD
Description: as §1, §2

[2] = topical, once daily for 4-8 weeks, histology

Which results are given for CN(CCOc1ccc(CC2SC(=O)NC2=O)cc1)C(=O)CCCCC1C2CC3CC(C2)CC1C3 (stereo not drawn) [BP 107, 5-Adamantan-2-yl-pentanoic acid {2-[4-(2,4-dioxo-thiazolidin-5-ylmethyl)-phenoxy]-ethyl}-methyl-amide]?
EC50 (PPARalpha): > 10 µM; antipsoriatic effect compared to animals treated with troglitazone or rosiglitazone ([1]; topical BP107 vs weaker PPAR gamma activators): much better; granular layer [1, 2]: present in much of the epidermis; inflammatory response [1, 2]: reduced; pattern of epidermal differentiation [1, 2]: more normal pattern; overall skin thickness ([1]; topical, once daily for 4-8 weeks, histology, vs vehicle controls): reduced; anti-psoriatic effect compared to control animals ([1]; topical, once daily for 4-8 weeks, controls treated with vehicle): clearly evident; EC50 (PPARdelta): > 10 µM; EC50 (PPARgamma): < 0.001 µM
